Results on 8 compounds are retold here after ChEMBL document CHEMBL1201862, “PubChem BioAssay data set” (2004).

Test systems include EKVX; SF-539; OVCAR-4; SW-620; LOX IMVI; RPMI-8226; SK-OV-3; Hs-578T; HOP-18; PC-3; HCT-15; HOP-92; OVCAR-8; HOP-62; HT-29; NCI-H460; HCT-116; A549; SK-MEL-28; T47D.
Assay in all cases: inhibition of tumour cell growth, NCI panel, 48 h

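Assay format: 96-well plates, 48-hour exposure. Here, GI50 denotes the concentration required for 50% inhibition of growth.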 The source made the active and inactive calls. Rule as the data show it: active = GI50 up to about 1.1 µM and inactive = higher.

Take `CC(=O)OC(CCC1(C)OC1COc1ccc(CCNC(=O)C=C(C)C)cc1)C(C)(C)OC(C)=O` (configuration not stated): the GI50 in the assay on EKVX was 16.9 µM (inactive); in the assay on SF-539, > 100 µM (inactive); in the assay on OVCAR-4, 23.7 µM (inactive); in the assay on SW-620 it was > 100 µM (inactive); with LOX IMVI it was 5.85 µM (inactive); in the assay with RPMI-8226, 13.1 µM (inactive). Further, the GI50 with SK-OV-3 was > 100 µM (inactive); with Hs-578T, 59.3 µM (inactive); with HOP-18 it was > 100 µM (inactive); in the assay on PC-3, 29.9 µM (inactive); with HCT-15, 24.9 µM; in the assay with HOP-92 it was > 100 µM (inactive). Besides, the GI50 is 22.9 µM (inactive) in the assay on OVCAR-8; 20 µM (inactive) in the assay on HOP-62; 46 µM (inactive) with HT-29; 25.6 µM (inactive) in the assay on NCI-H460; 0.611 µM (active) in the assay with HCT-116; 29.3 µM (inactive) with A549. The GI50 in the assay with SK-MEL-28 is 28.2 µM (inactive); in the assay on T47D it was 16.6 µM (inactive).
As for `O=NN(CCCl)C(=O)NC1CCC(CC2CCC(NC(=O)N(CCCl)N=O)CC2)CC1` (configuration not stated), the GI50 in the assay on EKVX was > 63.4 µM (inactive); in the assay on SF-539 it was 0.817 µM (active); in the assay with OVCAR-4 it was 28.8 µM (inactive); in the assay with SW-620 it was 23.3 µM (inactive); with LOX IMVI it was 0.91 µM (active); in the assay on RPMI-8226 it was 1.96 µM (inactive). Besides, the GI50 with SK-OV-3 is 2.23 µM (inactive); in the assay with HOP-18, > 38 µM (inactive); in the assay with HCT-15 it was 39.9 µM; in the assay with HOP-92, 26.2 µM (inactive); in the assay with OVCAR-8, 19.9 µM (inactive); in the assay with HOP-62, 1.97 µM (inactive). The GI50 was > 100 µM (inactive) with HT-29; 1.74 µM (inactive) in the assay on NCI-H460; 30.1 µM (inactive) in the assay with HCT-116; 33 µM (inactive) with A549; > 65.8 µM (inactive) in the assay with SK-MEL-28.
For `O=P1(Oc2ccc(Cl)cc2Cl)Oc2ccc3ccccc3c2-c2c(ccc3ccccc23)O1`, the GI50 is 25.4 µM (inactive) with EKVX; 21.6 µM (inactive) with SF-539; 27.9 µM (inactive) in the assay with OVCAR-4; 32.4 µM (inactive) with SW-620; 24 µM (inactive) with LOX IMVI; 18.2 µM (inactive) with RPMI-8226. In addition, the GI50 with SK-OV-3 was 59.7 µM (inactive); in the assay on HOP-18 it was 61.5 µM (inactive); in the assay with HCT-15 it was 26.5 µM; in the assay on HOP-92, 22.4 µM (inactive); in the assay on OVCAR-8, 40.1 µM (inactive); in the assay on HOP-62, 20.2 µM (inactive). The GI50 is 42.1 µM (inactive) in the assay on HT-29; 32.4 µM (inactive) with NCI-H460; 26.5 µM (inactive) in the assay on HCT-116; 49 µM (inactive) in the assay with A549; 32.5 µM (inactive) in the assay with SK-MEL-28.
As for `CC(C)c1ccc(O)c(=O)cc1` [GAMMA-THUJAPLICIN], the GI50 with EKVX was 10.1 µM (inactive); in the assay with SF-539, 2.38 µM (inactive); with OVCAR-4 it was 7.11 µM (inactive); in the assay on SW-620 it was 4.78 µM (inactive); in the assay on LOX IMVI, 4.29 µM (inactive); in the assay on RPMI-8226 it was 5.13 µM (inactive). For the same compound, the GI50 in the assay on SK-OV-3 is 42.8 µM (inactive); with HOP-18, 5.62 µM (inactive); in the assay with HCT-15 it was 4.59 µM; in the assay with HOP-92, 5.62 µM (inactive); in the assay on OVCAR-8, 3.46 µM (inactive); in the assay with HOP-62, 4.41 µM (inactive). Moreover, the GI50 with HT-29 was 4.73 µM (inactive); in the assay on NCI-H460, 5.28 µM (inactive); in the assay on HCT-116, 2.8 µM (inactive); in the assay with A549, 6.59 µM (inactive); with SK-MEL-28 it was 12.6 µM (inactive).
Take `CC(=O)NC1COC(COC(=O)CCCCCCCCCCNC(=O)c2ccc([N+](=O)[O-])c3c(=O)c4ccccc4[nH]c23)C(O)C1OC(C)C(=O)NC(C(=O)NC(CCC(N)=O)C(=O)OCc1ccccc1)C(C)C` (configuration not stated): the GI50 is 8.69 µM (inactive) in the assay with EKVX; 20.8 µM (inactive) with SF-539; 8.26 µM (inactive) with OVCAR-4; 26.6 µM (inactive) with SW-620; 11.5 µM (inactive) in the assay on LOX IMVI; 4.97 µM (inactive) with RPMI-8226. For the same compound, the GI50 in the assay with SK-OV-3 is 39.2 µM (inactive); in the assay on Hs-578T, 6.35 µM (inactive); with HOP-18, 16.8 µM (inactive); in the assay with PC-3, 8.05 µM (inactive); in the assay with HCT-15, 11.2 µM; in the assay with HOP-92 it was 8.05 µM (inactive). Moreover, the GI50 with OVCAR-8 was 12.6 µM (inactive); with HOP-62 it was 7.45 µM (inactive); in the assay with HT-29 it was 6.67 µM (inactive); in the assay on NCI-H460, 16.9 µM (inactive); in the assay with HCT-116, 12.2 µM (inactive); in the assay on A549, 25 µM (inactive). For the same compound, the GI50 in the assay with SK-MEL-28 is 11.9 µM (inactive); with T47D it was 2.25 µM (inactive).
As to `O=C1CCCn2c3ccccc3c3ccnc1c32`, the GI50 in the assay on EKVX is 12.2 µM (inactive); with SF-539, 30.8 µM (inactive); in the assay on OVCAR-4, 49 µM (inactive); with SW-620, 41.1 µM (inactive); in the assay on LOX IMVI it was 36.1 µM (inactive); in the assay with RPMI-8226, 23.6 µM (inactive). The GI50 was 44.7 µM (inactive) in the assay on SK-OV-3; 58.3 µM (inactive) with HOP-18; 41.7 µM in the assay with HCT-15; > 62.8 µM (inactive) with HOP-92; 34.6 µM (inactive) in the assay with OVCAR-8; 43.1 µM (inactive) with HOP-62. Also, the GI50 was 23.9 µM (inactive) with HT-29; 34 µM (inactive) with NCI-H460; 30.1 µM (inactive) in the assay on HCT-116; 44.6 µM (inactive) in the assay with A549; 51.6 µM (inactive) in the assay with SK-MEL-28.
On to `CCOC(=O)/C(=C/c1ccccn1)C(=O)c1ccccc1`, for which the GI50 in the assay on EKVX was 19.1 µM (inactive); with SF-539, 16.7 µM (inactive); with OVCAR-4, 16.1 µM (inactive); in the assay on SW-620 it was 14.2 µM (inactive); in the assay on LOX IMVI it was 2.48 µM (inactive); in the assay on RPMI-8226 it was 3.42 µM (inactive). For the same compound, the GI50 is 17.9 µM (inactive) in the assay with SK-OV-3; 18.3 µM (inactive) with HOP-18; 13.2 µM with HCT-15; 7.66 µM (inactive) in the assay on HOP-92; 14.5 µM (inactive) in the assay on OVCAR-8; 15.2 µM (inactive) with HOP-62. In addition, the GI50 with HT-29 is 13.9 µM (inactive); with NCI-H460 it was 23 µM (inactive); in the assay on HCT-116, 13.8 µM (inactive); with A549, 19.2 µM (inactive); with SK-MEL-28 it was 11.8 µM (inactive).
In the case of `O=c1c2ccccc2sc2nc(O)nn12`, the GI50 with EKVX, in the assay on SF-539, with OVCAR-4, with SW-620, in the assay with LOX IMVI and with RPMI-8226 was > 100 µM (inactive) throughout. Moreover, the GI50 was > 100 µM (inactive) with SK-OV-3; > 100 µM (inactive) in the assay with HOP-18; above 100 µM with HCT-15; > 100 µM (inactive) in the assay on HOP-92; > 100 µM (inactive) in the assay on OVCAR-8; > 100 µM (inactive) with HOP-62. The GI50 in the assay with HT-29, with NCI-H460, with HCT-116, in the assay on A549 and in the assay on SK-MEL-28 was > 100 µM (inactive) throughout.
